In patent publication US3962443A, “Antibacterial pharmaceutical compositions and processes for preparation thereof” (Dainippon Pharmaceutical Co., Ltd., priority 1972, dated 1976):
Converted amounts (≈) assume the structure as drawn. Like-named read-outs stand apart in the source and are kept apart here.

Assays:
[1] = system: Salmonella typhimurium S-9; experiment: In vivo efficacy against systemic infection with Salmonella typhimurium in mice; design: species or system mice (ddY-S); settings: for ED50: Salmonella enterica, TYPHIMURIUM, 336 h, twice a day for 4 days, 14 days observation; for number of the survived/the total number: 14 days
Method: (§1) In the Tables II to IV, the ED50 and ID50 values were calculated in accordance with the Behrens-Kaerber method [Arch. Exp. Path. Pharm., 162, 480 (1931)]. The compound numbers are those described in the Examples and compounds PA and AT-616 are as follows:
The numerical figures in the table show the number of the survived/the
(§2) total number. 0/8 means that all of 8 mice died. 8/8 means that all 8 mic
Experimental conditions.
Organism: Salmonella typhimurium S-9
(§3) Mice: male mice (ddY-S) weighing 20 g approximately
Infection: Intraperitoneal infection with 50 to 100 LD50 of a
bacterial suspension in nutrient broth (about 10^5 cells/mouse)
Medication: twice a day for 4 days from the day of infection.
Drug: an alkaline solution for parenteral administration and suspension i
0.2% CMC for oral administration
i.e.: intraperitoneal administration
p.o.: oral administration

[2] = system: Pseudomonas aeruginosa Tsuchijima; experiment: In vitro antibacterial activity, MIC by serial dilution; format: cell-based; settings: nutrient broth pH 7.0, 37°C, 48 hours
Method: (§4) The minimum inhibitory concentration (MIC) was determined by the well
(§5) known serial dilution method.
(§6) Experimental conditions:?
(§7) Medium: nutrient broth, pH 7.0 (5 ml/tube)
(§8) Inoculum: 1 drop of 1 : 10^5 dilution of an overnight broth culture
(§9) Incubation temperature and time: 37°C for 48 hours

Escherichia coli K-12 = experiment: as above; format: cell-based
Method: as §4, §5, §6, §7, §8, §9

[3] = system: Staphylococcus aureus Terajima; experiment: as above; format: cell-based; settings: nutrient broth pH 7.0, 37°C, 48 hours
Method: as §4, §5, §6, §7, §8, §9

[4] = system: Pseudomonas aeruginosa No. 12; experiment: In vivo efficacy against systemic infection with Pseudomonas aeruginosa in mice; design: species or system mice (ddY-S); settings: for ED50: twice, about 5 minutes and 6 hours after infection
Method: as §1, §2, §3

[5] = system: Mycobacterium tuberculosis H37 Rv; experiment: Antituberculous activity in vitro, MIC by serial dilution; format: cell-based; settings: H37RV, 504 h, Kirchner medium with 0.2% bovine albumin, pH 7.0, 37°C, 3 weeks
Method: (§10) The minimum inhibitory concentration (MIC:μg/ml) was determined by the
(§11) well known serial dilution method.
as §6
(§12) Medium: Kirchner medium containing 0.2% bovine albumin, pH 7.0 (3 ml/tube
(§13) Inoculum: 1 drop of 1:10^2 dilution of a culture in Modified Kirchner
(§14) medium for 2 weeks (OD=0.3) per tube
(§15) Incubation temp. and time: 37°C for 3 weeks

[6] = system: Mycobacterium tuberculosis Kurono; experiment: as above; format: cell-based; settings: 504 h, Kirchner medium with 0.2% bovine albumin, pH 7.0, 37°C, 3 weeks
Method: as §10, §11, §6, §12, §13, §14, §15

[7] = Escherichia coli, K12, 48 h, pH 7
[8] = NO.12, 168 h, ip, 50 mg/kg, 7 days, read-out: number of the survival/the total number (converted)
[9] = NO.12, 168 h, po, 7 days, read-out: number of the survival/the total number (converted)
[10] = K12, Escherichia coli K-12, nutrient broth pH 7.0, 37°C, 48 hours, read-out: MIC
[11] = NO.12, 168 h, ip, 7 days, read-out: number of the survival/the total number (converted)
[12] = NO.12, 168 h, ip, 100 mg/kg, 7 days, read-out: number of the survival/the total number (converted)

SMILES	ED50 ([1]; ip)	ED50 ([1]; po)	number of the survived/the total number ([1]; po, 25 mg/kg)	number of the survived/the total number ([1]; po, 50 mg/kg)	MIC [2]	MIC [3]	ED50 ([4]; NO.12, 168 h, ip, 7 days)	ED50 ([4]; NO.12, 168 h, po, 7 days)	responders at 50 mg/kg [4, 8]	responders at 200 mg/kg [4, 9]	MIC (Escherichia coli K-12; [10])	responders at 25 mg/kg [4, 11]	other results
CCn1cc(C(=O)O)c(=O)c2cnc(N3CCNCC3)nc21 [Compound 1, 5,8-Dihydro-8-ethyl-2-(1-piperazinyl)-5-oxopyrido[2,3-d]pyrimidine-6-carboxylic acid]	6.3 mg/kg	12.5 mg/kg	8/8	8/8	10 µg/mL (≈ 33 µM)	30 µg/mL (≈ 98.9 µM)	10.5 mg/kg	100 mg/kg	–	–	–	–	number of the survived/the total number ([1]; ip, 6.3 mg/kg): 4/8; number of the survived/the total number ([1]; ip, 12.5 mg/kg): 8/8; number of the survived/the total number ([1]; ip, 25 mg/kg): 8/8; number of the survived/the total number ([1]; po, 6.3 mg/kg): 0/8; number of the survived/the total number ([1]; po, 12.5 mg/kg): 4/8; MIC (Escherichia coli K-12; [7]): 1 µg/mL (≈ 3.3 µM); responders at 3.1 mg/kg ([4]; NO.12, ip, 168 h, read-out: number of the survival/the total number, ip, 3.1 mg/kg, 7 days): 12.5%; responders at 6.3 mg/kg ([4]; NO.12, ip, 168 h, read-out: number of the survival/the total number, ip, 6.3 mg/kg, 7 days): 25%; responders at 12.5 mg/kg ([4]; NO.12, ip, 168 h, read-out: number of the survival/the total number, ip, 12.5 mg/kg, 7 days): 50%; responders at 50 mg/kg ([4]; NO.12, ip, 168 h, read-out: number of the survival/the total number, ip, 50 mg/kg, 7 days): 100%; responders at 50 mg/kg ([4]; NO.12, po, 168 h, read-out: number of the survival/the total number, po, 50 mg/kg, 7 days): 0%; responders at 100 mg/kg ([4]; NO.12, po, 168 h, read-out: number of the survival/the total number, po, 100 mg/kg, 7 days): 50%
CCCn1cc(C(=O)O)c(=O)c2cnc(N3CCNCC3)nc21 [Compound 2, 5,8-Dihydro-2-(1-piperazinyl)-8-n-propyl-5-oxopyrido[2,3-d]pyrimidine-6-carboxylic acid]	–	–	–	–	30 µg/mL (≈ 94.5 µM)	100 µg/mL (≈ 315 µM)	35.4 mg/kg	< 200 mg/kg	100%	62.5%	–	–	MIC (Escherichia coli K-12; [7]): 3 µg/mL (≈ 9.45 µM)
CCn1cc(C(=O)O)c(=O)c2cnc(N3CCN(CC(C)O)CC3)nc21 (centres unmarked) [Compound 4, 5,8-Dihydro-8-ethyl-2-[4-(2-hydroxy-n-propyl)-1-piperazinyl]-5-oxopyrido[2,3-d]pyrimidine-6-carboxylic acid]	< 35.4 mg/kg	< 35.4 mg/kg	–	8/8	100 µg/mL (≈ 277 µM)	30 µg/mL (≈ 83 µM)	–	–	–	–	3 µg/mL (≈ 8.3 µM)	–	number of the survived/the total number ([1]; ip, 50 mg/kg): 8/8
CCn1cc(C(=O)O)c(=O)c2cnc(N3CCN(c4ccccc4)CC3)nc21 [Compound 6, 5,8-Dihydro-8-ethyl-2-(4-phenyl-1-piperazinyl)-5-oxoprido[2,3-d]pyrimidine-6-carboxylic acid]	–	–	–	–	–	–	–	–	–	–	–	–	MIC [5]: 6.3 µg/mL (≈ 16.6 µM); MIC [6]: 6.3 µg/mL (≈ 16.6 µM)
CCn1cc(C(=O)O)c(=O)c2cnc(N3CCNCC3)nc21.Cl [Compound 11, 5,8-Dihydro-8-ethyl-2-(1-piperazinyl)-5-oxopyrido[2,3-d]pyrimidine-6-carboxylic acid hydrochloride]	–	< 35.4 mg/kg	–	8/8	10 µg/mL	30 µg/mL	< 17.7 mg/kg	< 100 mg/kg	–	100%	3 µg/mL	100%	responders at 100 mg/kg ([4]; NO.12, 168 h, po, 100 mg/kg, 7 days, read-out: number of the survival/the total number (converted)): 87.5%
CCn1cc(C(=O)O)c(=O)c2cnc(N3CCN(Cc4ccc(OC)cc4)CC3)nc21 [Compound 17]	–	–	–	–	100 µg/mL (≈ 236 µM)	10 µg/mL (≈ 23.6 µM)	–	–	–	–	3 µg/mL (≈ 7.08 µM)	–	–
CCN1CCN(c2ncc3c(=O)c(C(=O)O)cn(CC)c3n2)CC1 [Compound 21, 2-(4-ethyl-1-piperazinyl)-5,8-dihydro-8-ethyl-5-oxopyrido[2,3-d]pyrimidine-6-carboxylic acid]	< 17.7 mg/kg	< 17.7 mg/kg	8/8	–	100 µg/mL (≈ 302 µM)	30 µg/mL (≈ 90.5 µM)	~100 mg/kg	~200 mg/kg	0%	50%	1 µg/mL (≈ 3.02 µM)	–	number of the survived/the total number ([1]; ip, 25 mg/kg): 8/8; responders at 100 mg/kg [4, 12]: 50%
O=C(O)c1cn(Cc2ccccc2)c2nc(N3CCNCC3)ncc2c1=O [Compound 33, 8-Benzyl-5,8-dihydro-2-(1-piperazinyl)-5-oxopyrido [2,3-d]pyrimidine-6-carboxylic acid]	12.5 mg/kg	–	–	–	10 µg/mL (≈ 27.4 µM)	100 µg/mL (≈ 274 µM)	< 17.7 mg/kg	–	–	–	3 µg/mL (≈ 8.21 µM)	100%	number of the survived/the total number ([1]; ip, 6.3 mg/kg): 1/8; number of the survived/the total number ([1]; ip, 12.5 mg/kg): 4/8; number of the survived/the total number ([1]; ip, 25 mg/kg): 7/8
C#CCN1CCN(c2ncc3c(=O)c(C(=O)O)cn(CC)c3n2)CC1 [Compound 38]	–	21 mg/kg	6/8	8/8	> 100 µg/mL	10 µg/mL (≈ 29.3 µM)	–	–	–	–	3 µg/mL (≈ 8.79 µM)	–	number of the survived/the total number ([1]; po, 12.5 mg/kg): 0/8
C=CCn1cc(C(=O)O)c(=O)c2cnc(N3CCNCC3)nc21 [Compound 50]	–	–	–	–	30 µg/mL (≈ 95.1 µM)	100 µg/mL (≈ 317 µM)	35 mg/kg	–	87.5%	–	10 µg/mL (≈ 31.7 µM)	12.5%	responders at 100 mg/kg [4, 12]: 100%
C=Cn1cc(C(=O)O)c(=O)c2cnc(N3CCNCC3)nc21.Cl [Compound 54, 5,8-Dihydro-2-(1-piperazinyl)-8-vinyl-5-oxopyrido[2,3-d] pyrimidine-6-carboxylic acid hydrochloride]	–	17.7 mg/kg	6/8	8/8	3 µg/mL	> 100 µg/mL	–	–	–	–	3 µg/mL	–	number of the survived/the total number ([1]; po, 12.5 mg/kg): 2/8
Cl.O=C(O)c1cn(CCCl)c2nc(N3CCNCC3)ncc2c1=O [Compound 63, 8-(2-chloroethyl)-5,8-dihydro-2-(1-piperazinyl)-5-oxopyrido[2,3-d]pyrimidine-6-carboxylic acid hydrochloride]	–	–	–	–	30 µg/mL	30 µg/mL	< 17.7 mg/kg	–	100%	–	3 µg/mL	100%	–
CCn1cc(C(=O)O)c(=O)c2cnc(N3CCC(O)C3)nc21 (centres unmarked) [Compound AT-616, reference compound]	–	–	–	–	100 µg/mL (≈ 329 µM)	30 µg/mL (≈ 98.6 µM)	> 100 mg/kg	> 200 mg/kg	–	12.5%	1 µg/mL (≈ 3.29 µM)	–	responders at 100 mg/kg [4, 12]: 37.5%
